Data as given in article PMC7822874, “Chemoprotective antimalarials identified through quantitative high-throughput screening of Plasmodium blood and liver stage parasites” (Scientific Reports, 2021).
Read-outs that look alike come from different tables or passages of the source.

Key:
[1] = tested on: luciferase-expressing P. berghei liver stage parasites in HepG2 cells; experiment: Inhibition of liver-stage development assay (ILSDA), Method 2 (WRAIR, 96-well); format: cell-based, Plasmodium berghei; details: for Activity direction (Decrease / Inactive): P. berghei liver stage; for Max Resp (signal direction of the dose response): Decrease = decreasing P. berghei viability with dose, Increase = increasing signal, Inactive = no dose response
in vitro = details: human, hepg2-a16-cd81egfp cells, % viability
[2] = Plasmodium berghei, HepG2, Method 2, Hill fit, 50% of maximum activity response, read-out: AC50
[3] = Plasmodium berghei, HepG2, Method 2, log10 of molar AC50 from Hill fit, read-out: Log AC50 (converted)
[4] = Plasmodium berghei, HepG2, P. berghei liver stage, Method 2, dose response, read-out: AC50
[5] = Plasmodium berghei, HepG2, P. berghei liver stage, Method 2, dose response, read-out: Log AC50 (converted)

Row | SMILES | viability at 3 µM (in vitro) | also measured
1 | CCC1=N[S+](=O)([O-])c2cc(NC(=O)C3CC3)ccc2N1CC(C)C [NCGC00475158-01] |  | Activity direction (Decrease / Inactive) ([1]; Method 2, dose response): Inactive
2 | Cc1ccc(NC2=C(c3ccc(C(F)(F)F)cc3)C(=O)c3ccccc32)cc1C [NCGC00107300] |  | Max Resp (signal direction of the dose response) ([1]; Method 2): Decrease; AC50 [1, 2]: 398 nM; AC50 [1, 3]: 398 nM
3 | Cc1cccc(N(C)c2nc3ccccc3c3nnc(C)n23)c1 [NCGC00126108] |  | Max Resp (signal direction of the dose response) ([1]; Method 2): Decrease; AC50 ([1]; Method 2, Hill fit, 50% of maximum activity response, read-out: AC50): 200 nM; Log AC50 (M) ([1]; Method 2, log10 of molar AC50 from Hill fit): -6.700 M
4 | CC(=O)Nc1ccc2c(c1)[S+](=O)([O-])N=C(CC(C)C)N2CC(C)C [NCGC00473311-01] |  | Activity direction (Decrease / Inactive) ([1]; Method 2, dose response): Inactive
5 | N#Cc1cccc(CN2CC(CNc3ccccc3)C3(C2)CN(c2ccccc2)C3)c1 (centres unmarked) [NCGC00415808-01] |  | Activity direction (Decrease / Inactive) ([1]; Method 2, dose response): Decrease; AC50 [1, 4]: 2240 nM; AC50 [1, 5]: 2240 nM
6 | CCCN1C(CC(C)C)=N[S+](=O)([O-])c2cc(NC(=O)C(C)C)ccc21 [NCGC00473220-01] |  | Activity direction (Decrease / Inactive) ([1]; Method 2, dose response): Decrease; AC50 [1, 4]: 1120 nM; AC50 [1, 5]: 1120 nM
7 | CC(=O)N1CCN(C(=O)c2ccc3c(c2)NC(C)(COc2ccc4[nH]ccc4c2)CO3)CC1 (centres unmarked) [NCGC00416302] |  | Activity direction (Decrease / Inactive) ([1]; Method 2, dose response): Inactive
8 | CC(C)CC1=N[S+](=O)([O-])c2cc(NC(=O)C3CC3)ccc2N1c1ccccc1 [NCGC00475156-01] |  | Activity direction (Decrease / Inactive) ([1]; Method 2, dose response): Decrease; AC50 [1, 4]: 3160 nM; AC50 [1, 5]: 3160 nM
9 | O=C(O)c1cccc(CN2CC(CNC(=O)c3ccccc3)C3(C2)CN(c2ccccc2)C3)c1 (centres unmarked) [NCGC00415857-01] |  | Activity direction (Decrease / Inactive) ([1]; Method 2, dose response): Decrease; AC50 [1, 4]: 891 nM; AC50 [1, 5]: 891 nM
10 | COc1ccc(NC2=C(c3ccc(C(F)(F)F)cc3)C(=O)c3ccccc32)cc1 [NCGC00107310] |  | Max Resp (signal direction of the dose response) ([1]; Method 2): Decrease; AC50 [1, 2]: 282 nM; AC50 [1, 3]: 282 nM
11 | CCC(C)C1=N[S+](=O)([O-])c2cc(NC(=O)c3ccco3)ccc2N1c1ccccc1 (centres unmarked) [NCGC00473608-01] |  | Activity direction (Decrease / Inactive) ([1]; Method 2, dose response): Decrease; AC50 [1, 4]: 3980 nM; AC50 [1, 5]: 3980 nM
12 | c1ccc(OCC2CN(Cc3ccc4[nH]ccc4c3)CC23CN(c2ccccc2)C3)cc1 (centres unmarked) [NCGC00415812-01] |  | Activity direction (Decrease / Inactive) ([1]; Method 2, dose response): Inactive
13 | CC(=O)Nc1ccc2c(c1)[S+](=O)([O-])N=C(CC(C)C)N2c1ccccc1 [NCGC00475154-01] |  | Activity direction (Decrease / Inactive) ([1]; Method 2, dose response): Inactive
14 | O=C(NCC1CN(C(=O)Cc2cccc(OC(F)(F)F)c2)CC12CN(c1ccccc1)C2)c1ccccc1 (centres unmarked) [NCGC00415900-01] |  | Activity direction (Decrease / Inactive) ([1]; Method 2, dose response): Inactive
15 | CC(C)C1=N[S+](=O)([O-])c2cc(NC(=O)c3ccco3)ccc2N1c1ccccc1 [NCGC00473412-01] |  | Activity direction (Decrease / Inactive) ([1]; Method 2, dose response): Inactive
16 | O=C(Nc1ncccc1O)c1ccc(S(=O)(=O)Nc2ccccc2)cc1 [MLS001099437-01] |  | Max Resp (signal direction of the dose response) ([1]; Method 2): Inactive
17 | c1ccc(NCC2CN(Cc3ccccn3)CC23CN(c2ccccc2)C3)cc1 (centres unmarked) [NCGC00415982-01] |  | Activity direction (Decrease / Inactive) ([1]; Method 2, dose response): Inactive
18 | Cc1ccc(NC2=C(c3ccc(C(F)(F)F)cc3)C(=O)c3ccccc32)cc1F [NCGC00107266] |  | Max Resp (signal direction of the dose response) ([1]; Method 2): Decrease; AC50 [1, 2]: 112 nM; AC50 [1, 3]: 112 nM
19 | Cc1cccc(N2CCN(c3nc4ccccc4c4nnc(C)n34)CC2)c1C [NCGC00107423] |  | Max Resp (signal direction of the dose response) ([1]; Method 2): Inactive
20 | O=C1C(c2ccc(C(F)(F)F)cc2)=C(Nc2ccc(Cl)cc2)c2ccccc21 [NCGC00107304] |  | Max Resp (signal direction of the dose response) ([1]; Method 2): Inactive
21 | CCN(CC)CCN1C(=O)c2ccccc2NC1c1ccc(Br)cc1 (centres unmarked) [MLS000723891] | 87.8% | 

Row | SMILES | viability at 3 µM (in vitro) | also measured
22 | COc1ccccc1[C@@]1(C)ON(c2ccccc2C(F)(F)F)C1=O [MLS002206613] | 88.4% | 
23 | CCN(CC)CC(O)COc1ccccc1C(=O)CCc1ccccc1 (centres unmarked) [MLS000107538] | 104% | 
24 | Cc1cc(C)c(C)c(S(=O)(=O)NCc2ccc(C(=O)N3CCCCC3)cc2)c1C [MLS000547926] | 90.2% | 
25 | CCCc1c(CC)c(=N)c2ccccc2n1C [MLS000080101] | 83.6% | 
26 | Cc1ccc(-c2cc(C(=O)Nc3ccc(S(=O)(=O)N4CC(C)OC(C)C4)cc3)[nH]n2)c(O)c1 (centres unmarked) [MLS000779230] | 89.2% | 
27 | CC(C(=O)N1CCCC1)N1CCN(S(=O)(=O)c2ccc(C(C)(C)C)cc2)CC1 (centres unmarked) [MLS002156464] | 92.8% | 
28 | CCCCOc1ccc(NC2=NC(N)=NC3(CCCCC3)N2)cc1 [MLS000109806] | 88.4% | 
29 | CC[C@@]1(c2ccccc2OC)ON(c2ccccc2C(F)(F)F)C1=O [MLS002206609] | 92.6% | 
30 | Oc1c(CN2CCN(c3ccccn3)CC2)cc(Cl)c2cccnc12 [NCGC00055619] | 77.4% | 
31 | CCOC(=O)c1c(NC(=O)C[n+]2ccc(N(C)C)cc2)sc(C)c1C [MLS000710762] | 65.1% | 
32 | Clc1ccc(NNc2ccnc3cc(Cl)ccc23)cc1 [MLS000537447] | 90.3% | 
33 | O=C(CCCCCCC(=O)Nc1ccccc1)NO [NCGC00168085] | 45.6% | 
34 | CC(C)(C)CC(C)(C)c1ccc(O)c(Cc2ccc(Cl)cc2Cl)c1 [NCGC00095016] | 93.1% | 
35 | Cc1ccc(S(=O)(=O)n2nccc2-c2c(-c3ccc(Cl)cc3)noc2C)cc1 [MLS001111122] | 101% | 
36 | CCN(CC)C1=NC(=[N+](CC)CC)c2ccccc21.[O-][Cl+3]([O-])([O-])O [MLS000565348] | 83.4% | 
37 | C=CCNC(=S)N1CCN(c2ccc([N+](=O)[O-])cc2)CC1 [MLS000581348] | 99.6% | 
38 | Cc1ccc(-c2c(C(=O)N/N=C/c3cccc(Cl)c3)nnn2-c2nonc2N)cc1 [MLS001139410] | 92.2% | 
39 | CCOc1ccc2c(c1)OC(c1ccc(C)cc1)(C(F)(F)F)NC2=O (centres unmarked) [MLS000392832] | 63.5% | 
40 | COc1ccc(NC(=O)C(c2ccc(Cl)cc2)C(C)C)cn1 (centres unmarked) [MLS001149289] | 88.5% | 
41 | CCCCc1cc(=O)oc2cc(C)cc(OCC(=O)Nc3cccnc3)c12 [MLS001160046] | 96.3% | 
42 | C/C(=N\Nc1nc(-c2ccccc2O)nc2ccccc12)c1ccccc1 [MLS000714167] | 93.6% | 

Row | SMILES | viability at 3 µM (in vitro) | also measured
43 | COc1ccc(-n2nc3c(c2NC(=O)CCl)CSC3)cc1 [MLS001066697] | 98.9% | 
44 | COc1ccc(Nc2cc(O)c3ncccc3c2)cc1 [NCGC00183797] | 69% | 
45 | Cc1ccnc2nc(C(=O)Nc3cc(Cl)ccc3N3CCOCC3)nn12 [MLS000567033] | 98.5% | 
46 | Cc1cc(C)cc(C(=O)Nc2ccc3c(N4CCCC4)ncnc3c2)c1 [NCGC00425487] | 31.8% | 
47 | CNc1ccc2oc(C[C@H]3O[C@@]4(CC[C@H]3C)O[C@H]([C@H](C)C(=O)c3ccc[nH]3)[C@H](C)C[C@H]4C)nc2c1C(=O)O [MLS001056783] | 19.2% | 
48 | N=c1ccn(CC(=O)c2ccc(-c3ccccc3)cc2)cc1 [MLS000698051] | 53.4% | 
49 | Cc1nc2ccc(NC(=O)c3cc(S(=O)(=O)N(C)c4ccccc4)ccc3Cl)cc2s1 [MLS000393823] | 59.7% | 
50 | Cc1cc(C)[n+](C)n1CC(O)Cn1c2ccccc2c2ccccc21 (centres unmarked) [MLS000711524] | 104% | 
51 | Cc1ccc(Nc2cc(C)c3ccc(O)cc3n2)cc1C [MLS000674791] | 92.2% | 
52 | Cc1nnsc1[S+]([O-])c1ccc(Cl)cc1 (centres unmarked) [MLS001166465] | 96.9% | 
53 | COc1cc2nc(SCc3ccc(F)cc3)n3nc(CCn4c(C)nc5ccccc54)nc3c2cc1OC [NCGC00108638] | 107% | 
54 | Cc1ccc(Nc2cc(C)nc(NCc3ccccc3)n2)cc1 [MLS000574704] | 80.6% | 
55 | CCOC(=O)c1nc2cc3n(c(CC(C)C)c-2c1C)CC(C)=C3C [MLS000594428] | 105% | 
56 | O=C(c1ccc([N+](=O)[O-])o1)N1CCN(c2nc3c(Cl)cccc3s2)CC1 [MLS001234208] | 90.1% | 
57 | COc1cc2ccccc2cc1C(=O)N1CCCC(C(F)(F)F)C1 (centres unmarked) [MLS002180647] | 86% | 
58 | CCOc1ccc(CCNC(=O)Nc2ccccc2)cc1OCC [MLS001197603] | 99.4% | 
59 | Cc1cc(O)c(CN2CCN(S(=O)(=O)c3cccs3)CC2)cc1C(C)C [MLS002157185] | 92.3% | 
60 | CCC(=O)N1CCc2cc(Br)cc(S(=O)(=O)N3CCCCC3CC)c21 (centres unmarked) [MLS000936752] | 90.3% | 
61 | O=c1c2ccccc2nc(N/N=C/c2c(O)ccc3ccccc23)n1O [MLS000551780] | 34.1% | 
62 | Cc1ccc(Nc2nnc(SCC(=O)c3ccc(O)cc3O)s2)cc1 [MLS001176347] | 99.9% | 
